Data on 26 molecules can be found in patent publication US20120015907A1, “Furopyridine compounds and uses thereof” (NOVARTIS AG, priority 2010, published 2012).

Structures are written as SMILES.

Assay [1] has as its system HCV replicon I389luc-ubi-neo/NS3-3'/ET in ET (Huh-lucubineo-ET) cells. The assay can be described thus: Replicon assay (Biological Example 2), luciferase read-out. The note with it: Hepatitis C virus, luciferase activity 48 hours after compound addition. The class given is cell-based. The gist of the method: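 ET cells stably carry the replicon with adaptive mutations E1202G, […] and K1846T. Compound is added 24 h after plating at 0.1 nM–50 μM final (10-point, 3-fold dilutions) with 0.5% DMSO, and luciferase is read 48 h later. EC50 comes from a Hill-equation fit of % inhibition versus no-compound control.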

The next assay addresses T1, HCV polymerase (Hepatitis C virus genotype 1b, UniProt Q9WMX2).
T1 construct: (His)6 (C)
The assay can be described thus: biochemical. The conditions noted are these: polymerase assay of Biological Example 1; read-out: NS5B polymerase IC50.

By IC50 is commonly meant the concentration at which inhibition is half-maximal. Take `CCc1cc2c(C(=O)NC)c(-c3ccc(F)cc3)oc2nc1N(CCCS(=O)(=O)c1ccccc1)S(C)(=O)=O` [Example 21.97, 5-ethyl-2-(4-fluorophenyl)-N-methyl-6-(N-(3-(phenylsulfonyl)propyl)methylsulfonamido)furo[2,3-b]pyridine-3-carboxamide]: the IC50 was at most 100 nM in assay [1] and 3 nM on HCV polymerase.
With `CNC(=O)c1c(-c2ccc(F)cc2)oc2nc(N(CCC(C)O)S(C)(=O)=O)c(C3CC3)cc12` (stereo not shown) [Example 26.5, 5-cyclopropyl-2-(4-fluorophenyl)-6-(N-(3-hydroxybutyl)methylsulfonamido)-N-methylfuro[2,3-b]pyridine-3-carboxamide], the IC50 was at most 100 nM in assay [1] and 10 nM at HCV polymerase.
On the same counts, the results for `CCc1cc2c(C(=O)NC)c(-c3ccc(F)cc3)oc2nc1N(C)S(C)(=O)=O` [Example 6, 5-Ethyl-2-(4-fluoro-phenyl)-6-(methanesulfonyl-methyl-amino)-furo[2,3-b]pyridine-3-carboxylic acid methylamide] are at most 100 nM and 20 nM.
On the same counts, the results for `CNC(=O)c1c(-c2ccc(C)cc2)oc2nc(N(CC[C@@H]3C[C@H]3C(=O)O)S(C)(=O)=O)c(C3CC3)cc12` [Example 28.1, (1R,2S)-2-(2-(N-(5-cyclopropyl-3-(methylcarbamoyl)-2-p-tolylfuro[2,3-b]pyridin-6-yl)methylsulfonamido)ethyl) cyclopropanecarboxylic acid] are at most 100 nM and 2 nM.
On the same counts, the results for `CNC(=O)c1c(-c2ccc(C)cc2)oc2nc(N(CCCC3(C(=O)O)CCCC3)S(C)(=O)=O)c(C3CC3)cc12` [Example 28, 1-(3-(N-(5-cyclopropyl-3-(methylcarbamoyl)-2-p-tolylfuro[2,3-b]pyridin-6-yl)methylsulfonamido)propyl) cyclopentanecarboxylic acid] are at most 100 nM and 1 nM.
On to `CNC(=O)c1c(-c2ccc(F)cc2)oc2nc(N(CCO)S(C)(=O)=O)c(C3CC3)cc12` [Example 2.2, 5-cyclopropyl-2-(4-fluorophenyl)-6-(N-(2-hydroxyethyl)methylsulfonamido)-N-methylfuro[2,3-b]pyridine-3-carboxamide], for which the IC50 in assay [1] was at most 100 nM; at HCV polymerase, 54 nM.
With `CNC(=O)c1c(-c2ccc(C)cc2)oc2nc(N(CCCS(C)(=O)=O)S(C)(=O)=O)c(I)cc12` [Example 18.994, 5-iodo-N-methyl-6-(N-(3-(methylsulfonyl)propyl)methylsulfonamido)-2-p-tolylfuro[2,3-b]pyridine-3-carboxamide], the values for the concentration for half-maximal inhibition (IC50) (in assay [1]; at HCV polymerase) were at most 100 nM and 14 nM, respectively.
On the same counts, the results for `CNC(=O)c1c(-c2ccc(C)cc2)oc2nc(N(CCCCCC(=O)O)S(C)(=O)=O)c(C3CC3)cc12` [Example 27.9, 6-(N-(5-cyclopropyl-3-(methylcarbamoyl)-2-p-tolylfuro[2,3-b]pyridin-6-yl)methylsulfonamido) hexanoic acid] are at most 100 nM and 2 nM.
For `CNC(=O)c1c(-c2ccc(C)cc2)oc2nc(N(CCCCC(=O)O)S(C)(=O)=O)c(C3CC3)cc12` [Example 25.1, 5-(N-(5-cyclopropyl-3-(methylcarbamoyl)-2-p-tolylfuro[2,3-b]pyridin-6-yl)methylsulfonamido)pentanoic acid], the IC50 in assay [1] was at most 100 nM; at HCV polymerase, 2 nM.
For the molecule `CCc1ccc(-c2oc3nc(N(C)S(C)(=O)=O)c(C4CC4)cc3c2C(=O)NC)cc1` [Example 2.94, 5-cyclopropyl-2-(4-ethylphenyl)-N-methyl-6-(N-methylmethylsulfonamido)furo[2,3-b]pyridine-3-carboxamide], the IC50 was at most 100 nM in assay [1] and 3 nM on HCV polymerase.
On the same counts, the results for `CNC(=O)c1c(-c2ccc(Cl)cc2)oc2nc(N(CCCC3CCCS3(=O)=O)S(C)(=O)=O)c(I)cc12` (stereo not shown) [Example 18.98, 2-(4-Chloro-phenyl)-6-{[3-(1,1-dioxo-tetrahydrothiophen-2-yl)-propyl]-methanesulfonyl-amino}-5-iodo-furo[2,3-b]pyridine-3-carobxylic acid methylamide] are at most 100 nM and 4 nM.
Consider `CNC(=O)c1c(-c2ccc(F)cc2)oc2nc(N(CCCC(C)(C)C(=O)OCC(C)C)S(C)(=O)=O)c(C3CC3)cc12` [Example 26, isobutyl 5-(N-(5-cyclopropyl-2-(4-fluorophenyl)-3-(methylcarbamoyl)furo[2,3-b]pyridin-6-yl)methylsulfonamido)-2,2-dimethylpentanoate], for which the IC50 was at most 100 nM in assay [1] and 6 nM at HCV polymerase.
On the same counts, the results for `CNC(=O)c1c(-c2ccc(C)cc2)oc2nc(N(CCCCS(C)(=O)=O)S(C)(=O)=O)c(C3CC3)cc12` [Example 25.6, 5-cyclopropyl-N-methyl-6-(N-(4-(methylsulfonyl)butyl)methylsulfonamido)-2-p-tolylfuro[2,3-b]pyridine-3-carboxamide] are at most 100 nM and 2 nM.
`CCOC(=O)CCCCN(c1nc2oc(-c3ccc(Cl)cc3)c(C(=O)NC)c2cc1C1CC1)S(C)(=O)=O` [Example 26.3, ethyl 5-(N-(2-(4-chlorophenyl)-5-cyclopropyl-3-(methylcarbamoyl)furo[2,3-b]pyridin-6-yl)methylsulfonamido) pentanoate]: the IC50 in assay [1] was at most 100 nM; at HCV polymerase, 3 nM.
For the molecule `CNC(=O)c1c(-c2ccc(F)cc2)oc2nc(N(C)S(C)(=O)=O)c(C(C)(O)CO)cc12` (stereo not shown) [Example 9, 5-(1,2-dihydroxypropan-2-yl)-2-(4-fluorophenyl)-N-methyl-6-(N-methylmethylsulfonamido)furo[2,3-b]pyridine-3-carboxamide], the IC50 was at least 5000 nM in assay [1] and 2320 nM at HCV polymerase.
On the same counts, the results for `CNC(=O)c1c(-c2ccc(F)cc2)oc2nc(N(CCCC(=O)O)S(C)(=O)=O)c(I)cc12` [Example 18.95, 4-(N-(2-(4-fluorophenyl)-5-iodo-3-(methylcarbamoyl)furo[2,3-b]pyridin-6-yl)methylsulfonamido)butanoic acid] are at least 5000 nM and 112 nM.
On the same counts, the results for `CNC(=O)c1c(-c2ccc(C3CC3)cc2)oc2nc(N(CCCCC(=O)O)S(C)(=O)=O)c(C3CC3)cc12` [Example 27.7, 5-(N-(5-cyclopropyl-2-(4-cyclopropylphenyl)-3-(methylcarbamoyl)furo[2,3-b]pyridin-6-yl)methylsulfonamido) pentanoic acid] are at most 100 nM and 1 nM.
As for `CNC(=O)c1c(-c2ccc(C)cc2)oc2nc(N(CCCC(C)(C)C(=O)O)S(C)(=O)=O)c(C3CC3)cc12` [Example 24, 5-[(5-Cyclopropyl-3-methylcarbamoyl-2-p-tolyl-furo[2,3-b]pyridin-6-yl)-methanesulfonyl-amino]-2,2-dimethyl-pentanoic acid], the IC50 was at most 100 nM in assay [1] and 1 nM on HCV polymerase.
`CNC(=O)c1c(-c2ccc(F)cc2)oc2nc(N(CCCS(C)(=O)=O)S(C)(=O)=O)c(C3CC3)cc12` [Example 24.01]: the IC50 in assay [1] was at most 100 nM; at HCV polymerase it was 1 nM.
On the same counts, the results for `CCc1cc2c(C(=O)NC)c(-c3ccc(F)cc3)oc2nc1N(CCCS(=O)(=O)C(C)C)S(C)(=O)=O` [Example 23.91, 5-ethyl-2-(4-fluorophenyl)-6-(N-(3-(isopropylsulfonyl)propyl)methylsulfonamido)-N-methylfuro[2,3-b]pyridine-3-carboxamide] are at most 100 nM and 18 nM.
On the same counts, the results for `CCc1cc2c(C(=O)NC)c(-c3ccc(F)cc3)oc2nc1N(CCCC1CCCS1(=O)=O)S(C)(=O)=O` (single isomer, unassigned) [Example 22.991, 6-{[3-(1,1-Dioxo-tetrahydro-1lambdathiophen-2-yl)-propyl]-methanesulfonyl-amino}-5-ethyl-2-(4-fluoro-phenyl)-furo[2,3-b]pyridine-3-carboxylic acid methylamide] are at most 100 nM and 7 nM.
For `CNC(=O)c1c(-c2ccc(Cl)cc2F)oc2nc(N(C)S(C)(=O)=O)c(I)cc12` [Example 2.95, 2-(4-chloro-2-fluorophenyl)-5-iodo-N-methyl-6-(N-methylmethylsulfonamido)furo[2,3-b]pyridine-3-carboxamide], the IC50 in assay [1] is at most 100 nM; on HCV polymerase, 8 nM.
On the same counts, the results for `CCc1cc2c(C(=O)NC)c(-c3ccc(F)cc3)oc2nc1N(CCCN1CCCCS1(=O)=O)S(C)(=O)=O` [Example 23.7, 6-{[3-(1,1-Dioxo-[1,2]thiazinan-2-yl)-propyl]-methanesulfonyl-amino}-5-ethyl-2-(4-fluorophenyl)-furo[2,3-b]pyridine-3-carboxylic acid methylamide] are at most 100 nM and 5 nM.
As to `CNC(=O)c1c(-c2ccc(C)cc2)oc2nc(N(CCCCS(C)(=O)=O)S(C)(=O)=O)c(I)cc12` [Example 18.996, 5-iodo-N-methyl-6-(N-(4-(methylsulfonyl)butyl)methylsulfonamido)-2-p-tolylfuro[2,3-b]pyridine-3-carboxamide], the IC50 was at most 100 nM in assay [1] and 4 nM on HCV polymerase.
On the same counts, the results for `CCc1ccc(-c2oc3nc(N(CCCCC(=O)O)S(C)(=O)=O)c(C4CC4)cc3c2C(=O)NC)cc1` [Example 27.8, 5-(N-(5-cyclopropyl-2-(4-ethylphenyl)-3-(methylcarbamoyl)furo[2,3-b]pyridin-6-yl)methylsulfonamido) pentanoic acid] are at most 100 nM and 1 nM.
On the same counts, the results for `CNC(=O)c1c(-c2ccc(F)cc2)oc2nc(N(C)S(C)(=O)=O)c(C3CC3)cc12` [Example 1, 5-Cyclopropyl-2-(4-fluoro-phenyl)-6-(methanesulfonyl-methyl-amino)-furo[2,3-b]pyridine-3-carboxylic acid methylamide] are at most 100 nM and 16 nM.
